Read-outs that look alike come from different tables or passages of the source.
Molecular target: T1, hM5 (Homo sapiens, UniProt P08912)
T1 construct: expressed in transfected cells
T1 sequence (P08912 1-532): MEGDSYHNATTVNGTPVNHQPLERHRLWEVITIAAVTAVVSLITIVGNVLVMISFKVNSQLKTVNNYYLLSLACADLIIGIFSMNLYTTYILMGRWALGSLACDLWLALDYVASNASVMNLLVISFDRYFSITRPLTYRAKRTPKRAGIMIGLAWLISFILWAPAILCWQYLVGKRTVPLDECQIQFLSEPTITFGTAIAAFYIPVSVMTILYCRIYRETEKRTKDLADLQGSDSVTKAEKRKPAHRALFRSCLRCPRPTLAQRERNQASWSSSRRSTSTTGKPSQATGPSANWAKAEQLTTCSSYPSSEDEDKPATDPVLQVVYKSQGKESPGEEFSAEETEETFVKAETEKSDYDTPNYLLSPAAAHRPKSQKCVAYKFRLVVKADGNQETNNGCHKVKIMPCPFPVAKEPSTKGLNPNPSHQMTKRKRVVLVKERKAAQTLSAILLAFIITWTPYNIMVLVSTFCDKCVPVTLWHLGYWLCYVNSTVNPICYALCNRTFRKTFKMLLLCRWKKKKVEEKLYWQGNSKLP
Test: Calcium mobilization concentration-response (IC50 vs EC80 acetylcholine), CHO hM5
Format: cell-based
Details: CELL LINE hM5, read-out: IC50
Method in brief: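 IC50 values derive from percent maximal acetylcholine response after an EC80 ACh addition, measured as kinetic calcium fluorescence (static ratio, max−min). Test compounds were added 140 s before agonist. Cells: stable hM5-CHO in HEPES-buffered HBSS with 2.5 mM probenecid, pH 7.4; ≥3 independent triplicate determinations.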

[1] = calcium mobilization, EC80 acetylcholine addition

Row | IC50 (vs EC80 acetylcholine) [nM] | IC50 [1] [nM] | SMILES
1 | 288 | – | CO[C@@H]1CN(S(=O)(=O)c2cnn(C)c2C)CC[C@H]1c1cn2ncnc2cc1C (racemic) [Compound 411, (rac)-6-(trans-1-((1,5-dimethyl-1H-pyrazol-4-yl)sulfonyl)-3-methoxypiperidin-4-yl)-7-methyl-[1,2,4]triazolo[1,5-a]pyridine]
2 | 33 | – | Cc1c(C2CCN(S(=O)(=O)c3cnn4ccccc34)CC2)cn2ncnc2c1F [Compound 545, 8-fluoro-7-methyl-6-(1-(pyrazolo[1,5-a]pyridin-3-ylsulfonyl)piperidin-4-yl)-[1,2,4]triazolo[1,5-a]pyridine]
3 | – | 358 | Cc1c(S(=O)(=O)N2CCC(c3ccc4ncnn4c3)CC2)cnn1C [Compound 288, 6(1-((1,5-dimethyl-1H-pyrazol-4-yl)sulfonyl)piperidin-4-yl)-[1,2,4]triazolo[1,5-a]pyridine]
4 | 169 | – | O=S(=O)(c1cnn2ccccc12)N1CCC(c2cn3ncnc3cc2F)CC1 [Compound 521, 7-fluoro-6-(1-(pyrazolo[1,5-a]pyridin-3-ylsulfonyl)piperidin-4-yl)-[1,2,4]triazolo[1,5-a]pyridine]

The next lines start with the compound.

Row | SMILES | IC50 (vs EC80 acetylcholine) [nM] | IC50 [1] [nM]
5 | Cn1ncc(S(=O)(=O)N2CCC(F)(c3cn4ncnc4cc3F)CC2)c1C#N [Compound 503, 4-((4-fluoro-4-(7-fluoro-[1,2,4]triazolo[1,5-a]pyridin-6-yl)piperidin-1-yl)sulfonyl)-1-methyl-1H-pyrazole-5-carbonitrile] | 1150 | –
6 | COc1cc2ncnn2cc1C1CCN(S(=O)(=O)c2ccc3c(c2)CCO3)CC1 [Compound 80, 6-(1-((2,3-dihydrobenzofuran-5-yl)sulfonyl)piperidin-4-yl)-7-methoxy-[1,2,4]triazolo[1,5-a]pyridine] | – | > 10000
